{"source": "patent US11207277B2", "about": "“Methods of treating diseases associated with high-fat diet and vitamin a deficiency using retinoic acid receptor agonists” (Cornell University, priority 2013, dated 2021)", "assay_type_in_all_cases": "in vivo", "key": {"c-peptide": {"tested_on": "c-peptide", "assay": "c-peptide/glucagon immunofluorescence of pancreatic islets, HF-fed mice", "description": "Immunofluorescence assays on cells and tissue sections were performed as previously described (29). Briefly, differentiated samples were fixed using 4% (w/v) paraformaldehyde and membrane permeabilization (for cells only) was done with 0.3% (w/v) Triton-X 100 (Sigma). Unspecific sites were blocked using 2% BSA for 30 min prior to incubation with rabbit polyclonal anti-PDX1 (Millipore, 06-1379, 1:1000), rabbit anti-C-Peptide (Cell Signaling, 4593, 1:500, Danvers, Mass.) and mouse monoclonal anti-Glucagon (Abcam, ab10988, 1:200) primary antibodies. Phalloidin-TRITC (Millipore, FAK100, 1:1000, Billerica, Mass.) was used to stain the actin stress fiber network (F-actin). Nuclei were stained using DAPI contained in Vectashield® mounting medium for fluorescence (Vector labs, Burlingame, Calif.). Quantitation of C-peptide positive stained cells and islet surface area was performed using MS-Elements Advanced Research software (Nikon).\nWT male C57/BL6 male mice were maintained on either a standard laboratory chow-fed diet (CFD) with 13% kcal fat, (diet #5053, Lab Diet, Inc, St. Louis, Mo.) or a high fat, western style diet (HFD) with 60% kcals from fat, (diet #58126, Lab Diet, Inc., St. Louis, Mo.) for 4 months. […]"}, "α-SMA": {"tested_on": "α-SMA", "assay": "α-SMA immunofluorescence of liver sections (hepatic stellate cell activation)", "details": "HF diet mice + AC261066 or CD1530, vs HF-vehicle", "excerpt": "(§1) WT male C57/BL6 male mice were maintained on either a standard laboratory chow-fed diet (CFD) with 13% kcal fat, (diet #5053, Lab Diet, Inc, St. Louis, Mo.) or a high fat, western style diet (HFD) with 60% kcals from fat, (diet #58126, Lab Diet, Inc., St. Louis, Mo.) for 4 months. One month after the start of the high fat diet treatment, the high fat diet group was further split into 2 groups for 3 months: i) high fat diet and the drinking water containing 1% DMSO; ii) high fat diet and the drinking water containing 1.5 mg/100 ml AC261066, a specific RARβ agonist. Then mice were sacrificed by cervical dislocation. Blood and various tissue samples were harvested.\nStaining. Fresh mouse liver samples were embedded in optimal cutting temperature (OCT) medium and immediately frozen to −70 centigrade. Cryosections were then fixed in 4% formaldehyde for 1 hr at room temp. Slides were then rinsed three times in deionized water (dH2O) for 30 s, followed by treatment with 0.5% Triton X-100 in PBS for 5 min. Sections were then washed three times with PBS for 5 min. Samples were with incubated 2% bovine serum albumin (BSA) for 30 min at room temperature to block for unspecific antibody binding. Following blocking, sections were washed three times in PBS and incubated with mouse monoclonal antibody against α-SMA (1:500) (Dako, Inc) for 24 h at 4° C. After 24 h sections were washed three times in PB and incubated with Alexa-Flour-488 anti-mouse secondary anti-body (1:500) (Invitrogen, Inc) for 30 min at room temperature. Sections were then washed three times in PBS and incubated with working strength oil-red O solution for 30 minutes at room temperature. Sections were then rinsed for 30 minutes under running tap water and cover-slipped with Vectashield hard mount plus DAPI (Vector Labs, Inc)."}, "4-hydroxynonenal (4-HNE)": {"tested_on": "4-hydroxynonenal (4-HNE)", "assay": "4-HNE staining of pancreas sections, HF-fed mice", "details": "HF diet mice, AC261066 1.5 mg/100 ml drinking water 3 months; vs HF-vehicle", "description": "AC261066 was dissolved in dimethyl sulfoxide (DMSO) at the concentration of 1.5 mg/ml, and diluted in the drinking water for mice to the final concentration of 1.5 mg/100 ml.\nas §1\nParaffin-embedded sections (from two to four mice per group) were deparaffinized and rehydrated, and antigen retrieval was performed using an antigen unmasking solution (Vector Laboratories, H-3300). After quenching endogenous peroxidase with 3% H2O2, the tissue sections were blocked with the blocking reagent (from the M.O.M. kit from Vector Laboratories). Then, tissue sections were incubated with a 4-HNE antibody (1:400; mouse monoclonal antibody: Abcam, ab48506) overnight at 4° C. […]"}, "RARβ2": {"tested_on": "RARβ2", "assay": "Semi-quantitative PCR kidney, RARβ2", "details": "HF diet mice + AC261066", "excerpt": "as §1\nTotal RNA was extracted from mouse tissues using TRIzol reagent (Life technologies) and (1 μg) was used to synthesize cDNA. cDNA synthesis was performed at 42° C. for 1 h in a final volume of 20 μl using qScript (Quanta, MD). Semi-quantitative PCR were performed Taq DNA polymerase (Invitrogen. CA). Three step PCR was run as follows: 94° C. for 30 s, 58-64° C. for 45 s for primer annealing and 72° C. for 1 min for primer extension. The number of cycles for each primer pair for amplification in the linear range was determined experimentally. PCR products were resolved on 2% agarose gels and visualized by staining with ehtidium bromide. Primers for gene expression used were as follows: […]"}, "all-trans retinol": {"tested_on": "all-trans retinol", "assay": "HPLC analysis of serum retinol", "details": "CF, HF and HF+AC261066 fed mice", "excerpt": "as §1\nThe frozen liver tissue samples (˜100 mg) were homogenized in 500 μl cold phosphate-buffered saline (PBS). In addition, 100 μl serum was diluted in cold PBS to total volume of 500 μl. Retinyl acetate was added to each sample before the retinoid extraction for the calculation of extraction efficiency. The retinoids were extracted into 350 μl of organic solution (acetonitrile/butanol, 50:50, v/v) in the dark. The high performance liquid chromatography (HPLC) was performed using a Waters Millennium system (Waters). […] The amounts of retinoids were calculated from the areas under the peaks detected at the wave-length of 325 nm. […]"}, "[1]": {"tested_on": "hepatocyte lipid accumulation", "assay": "Hematoxylin and eosin staining of liver sections (hepatic steatosis)", "details": "HF diet mice 4 months + AC261066 or CD1530; vs HF-vehicle", "excerpt": "as §1\nAt sacrifice, fresh mouse liver samples were fixed in 4% formaldehyde solution for 24 hr and embedded in paraffin blocks. Liver paraffin sections were cut 5 microns thick and mounted on glass slides and stained with hematoxylin and eosin (H and E) using standard protocols."}}, "note": "“Also recorded” adds a separate entry of the source."}
{"smiles": "CCCCOCCOc1nc(-c2ccc(C(=O)O)c(F)c2)sc1C", "note": "[AC261066]", "values": [{"measurement": "c-peptide level in pancreatic islets", "setting": "c-peptide; HF diet + AC261066 vs HF diet mice", "result": "slightly reduces expression of c-peptide; also recorded: slightly decreased c-peptide level"}, {"measurement": "c-peptide staining in pancreatic islets", "setting": "c-peptide; HF+AC261066 fed mice vs control diet controls", "result": "marked increase in c-peptide staining"}, {"measurement": "α-SMA positive staining in liver (HSC activation)", "setting": "α-SMA", "result": "diminished activation of hepatic stellate cells; also recorded: decreased expression of α-SMA; also recorded: decreased intensity and regions of α-SMA positive staining"}, {"measurement": "α-SMA positive staining in liver (HSC activation)", "setting": "α-SMA; listed as AC261011", "result": "α-SMA protein is decreased"}, {"measurement": "4-HNE staining intensity (oxidative stress) in pancreatic islets", "setting": "4-hydroxynonenal (4-HNE)", "result": "reduces oxidative stress in the pancreatic islets; also recorded: markedly lower 4-HNE staining intensity levels"}, {"measurement": "RARβ2 mRNA levels in kidney", "setting": "RARβ2", "result": "restores RAR beta and LRAT mRNA levels; also recorded: did not have decreased RARβ2 mRNA levels"}, {"measurement": "serum levels of all-trans retinol", "setting": "all-trans retinol", "result": "not different"}, {"measurement": "hepatocyte lipid infiltration / hepatic steatosis (H and E)", "setting": "[1]", "result": "diminished hepatic steatosis; also recorded: prevent hepatic steatosis; also recorded: marked decreased hepatocyte lipid infiltration"}]}
